Legend:
[1] = test system: human induced hepatic stem cells AFB1-1; experiment: AFP in culture supernatant (Example 18); format: cell-based; settings: cell sample No. 705: A-83-01 (0.5 μM at start, 0.1 μM at medium changes)/ReproStem (bFGF-free), no feeder cells, Matrigel
[2] = test system: human induced hepatic stem cells AFB1-1; experiment: Quantitative RT-PCR of marker genes, hepatic differentiation on Matrigel (Examples 2-4); format: cell-based; settings: no feeder cells, 13 days, No. 377 taken as 1
[3] = test system: TGF-β induced epithelial-mesenchymal transformation; settings: cited from earlier work
[4] = test system: p38 MAP kinase; settings: cited from earlier work
[5] = test system: type I receptor for the osteogenic factor; settings: cited from earlier work
[6] = test system: ALK 4; settings: cited from earlier work
[7] = test system: phosphorylation of Smad2/3; settings: cited from earlier work
[8] = test system: extracellular signal regulated kinase; settings: cited from earlier work
[9] = test system: human induced hepatic stem cells AFB1-1; experiment: Quantitative RT-PCR, differentiation with TGF-β signaling inhibitors (Example 12); format: cell-based; settings: cell samples Nos. 1545-1549: 0.5 μM inhibitor in ReproStem (bFGF-free), no feeder cells, Matrigel, 13 days after seeding
Protocol: The resultant cell samples are respectively referred to as “Nos. 1545-1549”. No. 1544 was cultured in the absence of any inhibitor. Nos. 1545-1549 were cultured in the presence of the following inhibitors, respectively.
Thirteen days after the seeding, the cells were lysed in 1 mL/well of a QIAzol reagent to prepare the total RNA from the cell lysate using the miRNeasy Mini Kit (Qiagen). The total RNA was subjected to quantitative RT-PCR using the iScript Advanced cDNA synthesis kit, the SsoAdvanced SYBR Green Supremix ([…]), and the CFX96 Real-Time System C1000 Thermal Cycler, all manufactured by Bio-Rad. The quantified genes were ALB, AAT, TTR, AFP, cytokeratin 7 (KRT7), cytokeratin 19 (KRT19), and DLK1 (Delta-like 1 homolog).

[10] = test system: human induced hepatic stem cells AFB1-1; experiment: AFP in culture supernatant, collagen coat (Example 19); format: cell-based; settings: no feeder cells
[11] = test system: human induced hepatic stem cells AFB1-1; experiment: AFP in culture supernatant, hepatic differentiation on Matrigel (Examples 2-4); settings: no feeder cells, 13 days after seeding
[12] = test system: human induced hepatic stem cells AFB1-1; experiment: AFP in culture supernatant (Example 13); format: cell-based; settings: cell sample No. 835: 0.5 μM A-83-01/ReproStem (bFGF-free), no feeder cells, Matrigel
From the text: The medium was replaced everyday with a fresh human ES/iPS cell medium (mTeSR1) to continue culture until reaching 50-80% confluence per dish. […] The resultant cell sample is referred to as “No. 835”.

[13] = test system: rat iPS cells; settings: added to a rat iPS cell culture medium; cited from earlier work
[14] = test system: human induced hepatic stem cells AFB 1-1; experiment: AFP in culture supernatant, suspension (three-dimensional) culture (Examples 6-10); format: cell-based; settings: cell samples Nos. 473-475: suspension culture, ReproStem (bFGF-free)/Y-27632 5 μM, low-attachment plate, no feeder cells, 7 days after seeding; A-83-01 0.1 μM, OsM 10 ng/mL, DEX 0.1 μM where present
Protocol: The cell pellets were lysed in 1 mL/well of a QIAzol reagent (refer to Table 8B).
Six days after the seeding, the cells were recovered centrifugally and then suspended in 2 mL of a fresh ReproStem (bFGF-free)/Y-27632 (5 μM) supplemented with 10 ng/mL oncostatin M (OsM) and 0.1 μM dexamethasone (DEX), to continue hepatic differentiation culture in the above culture plate. […] The cell pellets were lysed in 1 mL/well of a QIAzol reagent (refer to Table 8B).

[15] = cell sample No. 393: 0.1 μM A-83-01/mTeSR1 + 100 ng/mL bFGF
[16] = cell sample No. 394: 0.1 μM A-83-01/aFGF 10 ng/mL/ReproStem (bFGF-free)

Cc1cccc(-c2nn(C(=S)Nc3ccccc3)cc2-c2ccnc3ccccc23)n1 [A-83-01, 3-(6-methyl-2-pyridinyl)-N-phenyl-4-(4-quinolinyl)-1H-pyrazolo-1-carbothioamide]
AFP expression level (culture supernatant) ([1]; 8 days after the seeding): 5,540 ng/mL | AFP expression level (culture supernatant) ([1]; 13 days after the seeding): 2,320 ng/mL | AAT expression level [2, 15]: 240 | AFP expression level [2, 15]: 1,791 | ALB expression level [2, 15]: 1,925 | DLK1 expression level [2, 15]: 404 | TTR expression level [2, 15]: 2,871 | AAT expression level [2, 16]: 3,812 | AFP expression level [2, 16]: 12,812 | AHSG expression level [2, 16]: 14,079 | ALB expression level [2, 16]: 45,698 | APOA4 expression level [2, 16]: 966 | DLK1 expression level [2, 16]: 804 | FABP1 expression level [2, 16]: 3,034 | FGG expression level [2, 16]: 10,138 | FOXA2 expression level [2, 16]: 0.19 | HGF expression level [2, 16]: 11 | HNF1A expression level [2, 16]: 0.88 | HNF4A expression level [2, 16]: 0.39 | KRT7 expression level [2, 16]: 37.5 | NANOG expression level [2, 16]: 0.01 | OCT3/4 (POU5F1) expression level [2, 16]: 0.07 | RBP4 expression level [2, 16]: 4,326 | SOX2 expression level [2, 16]: 0.08 | SOX17 expression level [2, 16]: 0.03 | TF expression level [2, 16]: 9,126 | TTR expression level [2, 16]: 9,113 | TGF-β induced epithelial-mesenchymal transformation [3]: inhibits | effect on p38 MAP kinase [4]: little or no effect | effect on type I receptor for the osteogenic factor [5]: little or no effect | IC50 [6]: 0.012 µM | phosphorylation of Smad2/3 [7]: inhibits | effect on the extracellular signal regulated kinase [8]: little or no effect | AAT expression Ct value [9]: 23.57 | AFP expression Ct value [9]: 17.21 | ALB expression Ct value [9]: 20.95 | DLK1 expression Ct value [9]: 18.15 | KRT7 expression Ct value [9]: 20.51 | KRT19 expression Ct value [9]: 22.05 | TTR expression Ct value [9]: 16.96 | GAPDH expression Ct value ([9]; housekeeping gene): 14.22 | AFP expression level (culture supernatant) ([10]; cell sample No. 634: 0.1 μM A-83-01/ReproStem (bFGF-free), collagen plate without Matrigel, 6 days after the seeding): 2,890 ng/mL | AFP expression level (culture supernatant) ([10]; cell sample No. 634: 0.1 μM A-83-01/ReproStem (bFGF-free), collagen plate without Matrigel, 14 days after the seeding): 24,900 ng/mL | AFP expression level (culture supernatant) ([10]; cell sample No. 637: 0.1 μM A-83-01/ReproStem (bFGF-free), collagen plate coated with Matrigel, 6 days after the seeding): 3,040 ng/mL | AFP expression level (culture supernatant) ([10]; cell sample No. 637: 0.1 μM A-83-01/ReproStem (bFGF-free), collagen plate coated with Matrigel, 14 days after the seeding): 30,000 ng/mL | α-fetoprotein (AFP) in culture supernatant [11, 15]: 3,120 ng/mL | α-fetoprotein (AFP) in culture supernatant [11, 16]: 14,400 ng/mL | AFP yield (culture supernatant) ([12]; 6 days after the seeding): 6,430 ng/mL | AFP yield (culture supernatant) ([12]; 13 days after the seeding): 30,900 ng/mL | culture of rat iPS cells [13]: allows uniform proliferation and prolonged culture of rat iPS cells without differentiation | α-fetoprotein (AFP) in culture supernatant [14]: 324 ng/mL
